Test results: ChEMBL document CHEMBL3430912, “GSK Tres Cantos Anti-Kinetoplastid Screening (TCAKS) Data”
pIC50: −log10 of the molar value.

How the values were obtained:
[1] = system: Trypanosoma brucei brucei; assay: GSK_TCAKS: pIC50 Trypanosoma brucei viability assay using fluorescence intensity. Assay plates (1536-well) were prepared by dispensing 25nL of compound solution per well using an Echo acoustic dispenser (Labcyte).; assay type: functional, organism-based; details: Lister 427, 2 h
Trypanosoma cruzi [2] = assay: GSK_TCAKS: pIC50 Trypanosoma cruzi Imaging: Amastigotes/Cell. […] Cells were then washed once with PBS before infection. T. cruzi trypomastigotes, collected at days 5 to 8 after infection from LLC-MK2 parasite infected cultures, were allowed to swim out for 4h at 37C from a centrifuged pellet (2,500 rpm/10 min/room temperature). Trypomastigotes were then collected and counted in a CASY Cell Counter. Trypomastigotes, in supplemented DMEM, were added to H9c2 cultures in a multiplicity of infection of 1 and incubated for 18 h. Cells were washed once with PBS before incubation of the infected H9c2 monolayer with trypsin (Life-Technologies) to detach cells from the flask. Cells were counted in a CASY Cell Counter using a 150 um capillary and their density set at 5 * 10^4 cells per mL in supplemented assay DMEM. Infected H9c2 were dispensed into 384-well poly-lysine coated assay plates at 50uL per well using a Multidrop Combi dispenser. After seeding them, the plates were incubated at 37C, 5% CO2 for 72h. Cultures were then fixed and stained by addition of 50 uL of a solution containing 8% formaldehyde and 4 uM DRAQ5 DNA dye (BioStatus, UK) per well. […] Five images were collected per well for reliable statistical analysis. Automated image analysis was performed with a script developed on Acapella High Content Imaging and Analysis Software (PerkinElmer). Output: number of amastigotes per cell as infection level measurement.; assay type: functional, organism-based, Rattus norvegicus; details: H9c2, 4 h
Trypanosoma cruzi [3] = assay: (§1) GSK_TCAKS: pIC50 Trypanosoma cruzi Imaging: Infected Cells. […] Cells were then washed once with PBS before infection. T. cruzi trypomastigotes, collected at days 5 to 8 after infection from LLC-MK2 parasite infected cultures, were allowed to swim out for 4h at 37C from a centrifuged pellet (2,500 rpm/10 min/room temperature). Trypomastigotes were then collected and counted in a CASY Cell Counter. Trypomastigotes, in supplemented DMEM, were added to H9c2 cultures in a multiplicity of infection of 1 and incubated for 18 h. Cells were washed once with PBS before incubation of the infected H9c2 monolayer with trypsin (Life-Technologies) to detach cells from the flask. Cells were counted in a CASY Cell Counter using a 150 um capillary and their density set at 5 * 10^4 cells per mL in supplemented assay DMEM. Infected H9c2 were dispensed into 384-well poly-lysine coated assay plates at 50uL per well using a Multidrop Combi dispenser. After seeding them, the plates were incubated at 37C, 5% CO2 for 72h. Cultures were then fixed and stained by addition of 50 uL of a solution containing 8% formaldehyde and 4 uM DRAQ5 DNA dye (BioStatus, UK) per well. […] Five images were collected per well for reliable statistical analysis. Automated image analysis was performed with a script developed on Acapella High Content Imaging and Analysis Software (PerkinElmer). Output: percentage of infected cells per well as a second infection marker.; assay type: functional, organism-based, Rattus norvegicus; details: H9c2, 4 h
Leishmania donovani [4] = assay: (§2) GSK_TCAKS: pIC50 Leishmania donovani Imaging: Infected Macrophages. Assay plates (384-well) were prepared by adding 250nL of compound to each well. For single shot assay, the final compound concentration was 5 uM. […] Automated image analysis was performed with a script developed on Acapella High Content Imaging and Analysis Software (PerkinElmer). Output: Percent of infected macrophage cells were reported for each well.; assay type: functional, organism-based, Homo sapiens; details: THP-1
[5] = system: Trypanosoma brucei brucei; assay: GSK_TCAKS: pIC50 Trypanosoma brucei viability assay using luminiscence. Assay plates (1536-well) were prepared. T. brucei cultures were harvested and counted in a CASY cell counter. A parasite suspension was prepared at a final concentration of 5 * 10^4 cells/mL in complete HMI9 medium and 6uL was dispensed to all wells containing compounds using a Multidrop Combi dispenser. 6uL of HMI9 media with 0.4% DMSO were dispensed to control columns. Plates were incubated for 24 h at 37C, 5% CO2 then tempered for 10 min at room temperature. ATP content was quantified by adding 4 uL of CellTiter-Glo Reagent (Promega) according to the manufacturer's instructions. Luminescence was measured using a ViewLux.; assay type: functional, organism-based; details: Lister 427, CASY
Leishmania donovani [6] = assay: as §2, with “THP-1 Host” for “Infected”, “THP-1 cell count” for “Percent of infected macrophage cells”; assay type: functional, organism-based, Homo sapiens
Leishmania donovani [7] = assay: GSK_TCAKS: pIC50 Leishmania donovani viability assay using fluorescence intensity. Assay plates (1536-well) were prepared by adding 30nL per well of compound. For single shot assay, the final compound concentration was 5uM. […] Briefly, eGFP LdBOB axenic amastigotes were harvested, fixed and counted in a CASY cell counter (Roche-Applied Science). A final concentration of 1.5 * 10^5 cells per well were prepared in amastigote media containing 500 U/mL penicillin/streptomycin (Invitrogen) and 6uL was dispensed to each experimental well using a Multidrop Combi dispenser (Thermo Scientific). 6uL of assay media was dispensed to control columns used as reference for 100% compound response. Following incubation for 72 h at 37C, 5% CO2, 2 uL of resazurin was added to each well at a final concentration of 0.5 mM in phosphate buffered saline (PBS) with IGEPAL (Sigma-Aldrich), 0.05% (v/v).; assay type: functional, organism-based
[8] = GSK_TCAKS: pIC50 HepG2 human cell line viability assay using luminiscence. […] Seeding density was checked to ensure that new mono-layers were not more than 50% confluent at the time of harvesting. Cell suspension was added to 500 mL of the same medium at a final density of 1.2 * 10^5 cells/mL. This cell suspension was dispensed (25 uL, 3000 cells per well) into 384-well clear-bottom plates using a Multidrop Combi dispenser. Prior to addition of the cell suspension, the screening compounds (250 nL) were pre-dispensed into the plates with an Echo liquid handler. Plates were incubated for 48 h at 37C, 5% CO2. After incubation, plates equilibrated at room temperature for 30 min before proceeding to develop the luminescent signal. The signal developer, CellTiter-Glo Reagent, was allowed to equilibrate at room temperature for 30 min and added to the plates (25uL per well) using a Multidrop Combi dispenser. Plates were left for 10 min at room temperature for stabilization and then read using a ViewLux.; assay type: toxicity, cell-based
NIH3T3 = assay: GSK_TCAKS: pIC50 NIH 3T3 cell line viability assay using luminiscence. Tissue culture surface treated assay plates (1536-well) were used. […] The 100% cells survival control was determined exposing the host-cells to a 0.5% DMSO concentration, whereas the 100% toxicity control was achieved by seeding the cells in presence of Amphotericin B at 50uM. Plates were incubated for four days at 37C, 5% CO2. The assay readout was developed by addition of 5uL of CellTiter-Glo Reagent following the manufacturer's instructions. Luminiscence was measured using a ViewLux.; assay type: functional, cell-based; details: Mus musculus, NIH3T3, 96 h
Leishmania donovani [9] = assay: as §2, with “Amastigotes/Macrophages.” for “Infected Macrophages.”, “Average number” for “Percent”, “amastigotes per” for “infected”, “cell” for “cells”; assay type: functional, organism-based, Homo sapiens; details: THP-1
Trypanosoma cruzi [10] = assay: as §1, with “H2C9” for “Trypanosoma cruzi”, “H9c2 Host Cardiomyocytes.” for “Infected Cells.”, “Number” for “percentage”, “H9c2 Host Cardiomyocytes nuclei to determine drug-related cytotoxicity.” for “infected cells per well as a second infection marker.”; assay type: functional, organism-based, Rattus norvegicus; details: H9c2, 4 h
[11] = target: Sterol 14-alpha demethylase (Trypanosoma cruzi (strain CL Brener), UniProt Q7Z1V1); assay: GSK_TCAKS: pIC50 CYP51 from Trypanosoma cruzi.; assay type: functional
Trypanosoma cruzi [12] = assay: GSK_TCAKS: pIC50 Trypanosoma cruzi viability assay using beta-GAL activity. This assay was run at single shot at 5uM compound concentration per well. The biological reagents consisted of NIH-3T3 host cells and trypomastigotes parasitic cells; both cell types were set to a 3.3 * 10^5 cells/mL dilution in assay DMEM by means of a CASY cell counter device using a 60um capillary. 6 uL of the mixture were dispensed per well (about 1 * 10^3 host-cells and 1 * 10^3 parasites) with a Multidrop Combi dispenser. […] In all wells, the percentage of DMSO never exceeded 0.5%. Plates incubated for four days at 37C, 5% CO2. The substrate used for the assay fluorescence intensity (FLINT) readout was resorufin-beta-D-galactopiranoside (Sigma-Aldrich) at 5uM per well. It was diluted in PBS supplemented with the soft detergent Igepal (Fluka).; assay type: functional, organism-based, Mus musculus; details: Tulahuen, NIH3T3

Sterol 14-alpha demethylase, sequence (Q7Z1V1 whole entry): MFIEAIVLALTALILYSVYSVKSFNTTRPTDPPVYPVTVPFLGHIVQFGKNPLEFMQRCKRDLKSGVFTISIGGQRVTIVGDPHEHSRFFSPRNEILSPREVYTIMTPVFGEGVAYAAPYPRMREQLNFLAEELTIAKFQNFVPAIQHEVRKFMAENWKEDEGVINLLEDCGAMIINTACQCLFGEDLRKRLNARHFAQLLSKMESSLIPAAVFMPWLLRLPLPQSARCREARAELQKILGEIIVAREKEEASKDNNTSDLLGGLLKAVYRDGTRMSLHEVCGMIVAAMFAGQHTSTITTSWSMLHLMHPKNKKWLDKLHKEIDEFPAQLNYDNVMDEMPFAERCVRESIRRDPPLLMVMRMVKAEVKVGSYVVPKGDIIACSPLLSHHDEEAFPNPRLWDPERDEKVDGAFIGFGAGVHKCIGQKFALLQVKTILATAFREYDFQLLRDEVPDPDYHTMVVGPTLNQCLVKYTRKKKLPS

Compound	pIC50 [1]	pIC50 (Trypanosoma cruzi [2])	pIC50 (Trypanosoma cruzi [3])	pIC50 (Leishmania donovani [4])	pIC50 [5]	pIC50 (Leishmania donovani [6])	pIC50 (Leishmania donovani [7])	IC50 at 48 h [8] [µM]	pIC50 (NIH3T3)	pIC50 (Leishmania donovani [9])	pIC50 (Trypanosoma cruzi [10])	pIC50 [11]	pIC50 (Trypanosoma cruzi [12])
O=C(NCc1ccncc1)c1ccccc1N1CCCN(C(=O)Cc2ccc(F)c(F)c2)CC1	5.20	7.10	7.10	< 4.30	4.70	< 4.30	5.60	> 100	4.80	< 4.30	< 4.30	7.10	6.90
COc1ccc(C(C)(C)C)cc1S(=O)(=O)n1ccnc1	4.40	6.70	6.70	< 4.30	< 4.40	< 4.30	4.40	> 100	< 4.30	4.60	< 4.30	8.10	6.85
CCCn1c(NC(=O)Cc2ccc(Cl)cc2)nc2ccccc21	5.70	5.90	5.70	5.30	5.50	< 4.30	4.40	> 100	< 4.30	5.50	< 4.30	< 4.00	6.20
O=C(Nc1nc(-c2ccc(S(=O)(=O)N3CCOCC3)cc2)cs1)c1ccc([N+](=O)[O-])cc1	5.40	6.30	5.80	< 4.30	5.00	5.40	< 4.30	> 100	4.60	5.60	< 4.30	< 4.00	6.00
Cc1ccc2sc(NC(=O)Cn3cnc([N+](=O)[O-])n3)nc2c1	4.60	6.30	5.40	< 4.30	< 4.40	< 4.30	< 4.30	> 100	4.30	< 4.30	< 4.30	< 4.00	5.90
CCC(=O)Nc1ccc(C(=O)Nc2ccccc2-c2ccccc2)cc1	4.70	6.60	6.30	4.70	4.60	4.80	5.00	> 100	< 4.30	4.60	< 4.30	< 4.00	6.30
CCN(CC)S(=O)(=O)c1ccc(Cn2nc(C(=O)Nc3ccncn3)c3ccccc32)cc1	4.50	6.40	6.40	< 4.30	< 4.40	< 4.30	< 4.30	> 100	4.40	< 4.30	4.60	6.80	6.50
